In patent US20250129430A1, “HIGH ATP-AFFINITY PROTEIN AS THERAPEUTIC TARGET FOR INTRACTABLE CANCER MOLECULAR SUBTYPES AND INHIBITOR THEREOF” (VeraVerse Co., Ltd., priority 2021, published 2025):

Key:
Test in all cases: Cell viability drug screen, 12-point dose-response AUC
Format in all cases: cell-based, human
AGS = conditions: 72 hours
Method in brief: (§1)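 AUC comes from 12-point half-log dose–response curves, normalized to DMSO-treated cells and integrated trapezoidally, repeats averaged. Luminescent viability read after 72 h compound exposure at 37 °C; cells plated 5×10^3 per well 24 h before dosing.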

Hs746T = conditions: 72 hours
Method in brief: (§2)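 Viability: luminescence (Glo kit, 15 min RT), normalized to 0.5% DMSO vehicle. Dosing: half-log, 12 concentrations, 72 h. Cells: 5×10^3/well, treated 24 h after plating. Value: trapezoidal AUC, mean of repeats.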

KATO3 = KATO3 cells, 72 hours
Method in brief: as §2

MKN1 = MKN1 cells, 72 hours
Method in brief: as §2

MKN28 = MKN28 cells, 72 hours
Method in brief: as §2

MKN45 = conditions: 72 hours
Method in brief: as §1

MKN74 = MKN74 cells, 72 hours
Method in brief: as §1

NCC19 = NCC19 cells, 72 hours
Method in brief: as §2

NCC20 = NCC20 cells, 72 hours
Method in brief: as §2

NCC24 = NCC24 cells, 72 hours
Method in brief: as §2

NCC59 = NCC59 cells, 72 hours
Method in brief: as §2

NCI_N87 = NCI_N87 cells, 72 hours
Method in brief: as §2

OCUM1 = OCUM1 cells, 72 hours
Method in brief: as §2

SK4 = conditions: 72 hours
Method in brief: as §2

SNU16 = SNU16 cells, 72 hours
Method in brief: as §2

SNU1750 = conditions: 72 hours
Method in brief: as §2

SNU1967 = SNU1967 cells, 72 hours
Method in brief: as §2

SNU1 = SNU1 cells, 72 hours
Method in brief: as §2

SNU216 = conditions: 72 hours
Method in brief: as §1

SNU484 = conditions: 72 hours
Method in brief: as §2

SNU601 = SNU601 cells, 72 hours
Method in brief: as §2

SNU620 = SNU620 cells, 72 hours
Method in brief: as §2

SNU638 = SNU638 cells, 72 hours
Method in brief: as §2

SNU668 = conditions: 72 hours
Method in brief: as §2

SNU719 = SNU719 cells, 72 hours
Method in brief: as §1

YCC11 = conditions: 72 hours
Method in brief: as §2

YCC2 = YCC2 cells, 72 hours
Method in brief: as §2

YCC3 = YCC3 cells, 72 hours
Method in brief: as §2

FU97 = system: FU97; design: Average Area Under the Viability Curve (AUC), AUC norm value: scale not given here; conditions: FU97 cells, 72 hours
Method in brief: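 Trapezoidal AUC of a 12-point, DMSO-normalized dose-response curve. Luminescent viability was measured after 72 h of exposure at 37° C to half-log serial dilutions (0.5% DMSO control), dosed 24 h after plating FU97 cells at 5×10^3 per well.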

## O=C(CCCCCCC(=O)Nc1ccccc1)NO [Vorinostat (SAHA), Vorinostat]
AGS; AGS cells (non-SEM subtype)
  Average Area Under the Viability Curve (AUC), AUC norm value: −0.5947
Hs746T; Hs746T cells (SEM subtype)
  Average Area Under the Viability Curve (AUC), AUC norm value: −0.04774
KATO3
  Average Area Under the Viability Curve (AUC), AUC norm value: 0
MKN1
  Average Area Under the Viability Curve (AUC), AUC norm value: 0.4282
MKN28
  Average Area Under the Viability Curve (AUC), AUC norm value: −0.08142
MKN45; MKN45 cells (non-SEM subtype)
  Average Area Under the Viability Curve (AUC), AUC norm value: 2.416
MKN74
  Average Area Under the Viability Curve (AUC), AUC norm value: −0.07666
NCC19
  Average Area Under the Viability Curve (AUC), AUC norm value: 0.2993
NCC20
  Average Area Under the Viability Curve (AUC), AUC norm value: −0.9328
NCC24
  Average Area Under the Viability Curve (AUC), AUC norm value: −0.3421
NCC59
  Average Area Under the Viability Curve (AUC), AUC norm value: 1.01
NCI_N87
  Average Area Under the Viability Curve (AUC), AUC norm value: 0.8986
OCUM1
  Average Area Under the Viability Curve (AUC), AUC norm value: −0.5166
SK4; SK4 cells (SEM subtype)
  Average Area Under the Viability Curve (AUC), AUC norm value: 0.6434
SNU16
  Average Area Under the Viability Curve (AUC), AUC norm value: −0.7875
SNU1750; SNU1750 cells (SEM subtype)
  Average Area Under the Viability Curve (AUC), AUC norm value: −0.5737
SNU1967
  Average Area Under the Viability Curve (AUC), AUC norm value: −0.2574
SNU1
  Average Area Under the Viability Curve (AUC), AUC norm value: −0.2152
SNU216; SNU216 cells (non-SEM subtype)
  Average Area Under the Viability Curve (AUC), AUC norm value: −0.04999
SNU484; SNU484 cells (SEM subtype)
  Average Area Under the Viability Curve (AUC), AUC norm value: 1.041
SNU601
  Average Area Under the Viability Curve (AUC), AUC norm value: 2.84
SNU620
  Average Area Under the Viability Curve (AUC), AUC norm value: 0.08594
SNU638
  Average Area Under the Viability Curve (AUC), AUC norm value: −0.4313
SNU668; SNU668 cells (SEM subtype)
  Average Area Under the Viability Curve (AUC), AUC norm value: 0.4303
SNU719
  Average Area Under the Viability Curve (AUC), AUC norm value: 1.843
YCC11; YCC11 cells (SEM subtype)
  Average Area Under the Viability Curve (AUC), AUC norm value: −0.2285
YCC2
  Average Area Under the Viability Curve (AUC), AUC norm value: 0.09328
YCC3
  Average Area Under the Viability Curve (AUC), AUC norm value: 1.034
FU97
  Average Area Under the Viability Curve (AUC), AUC norm value: 0.2975

## CCCCc1nc2cc(/C=C/C(=O)NO)ccc2n1CCN(CC)CC [SB939 (Pracinostat), Pracinostat]
AGS; AGS cells, 12-point dose-response
  area under the viability curve (AUC), normalized: −1.799
Hs746T; Hs746T cells, 12-point dose-response
  area under the viability curve (AUC), normalized: 0.7098
KATO3; 12-point dose-response
  area under the viability curve (AUC), normalized: 0.2173
MKN1; 12-point dose-response
  area under the viability curve (AUC), normalized: 0.232
MKN28; 12-point dose-response
  area under the viability curve (AUC), normalized: −0.5866
MKN45; MKN45 cells, 12-point dose-response
  area under the viability curve (AUC), normalized: 1.672
MKN74; 12-point dose-response
  area under the viability curve (AUC), normalized: 0.3806
NCC19; 12-point dose-response
  area under the viability curve (AUC), normalized: 0.6538
NCC20; 12-point dose-response
  area under the viability curve (AUC), normalized: −0.08068
NCC24; 12-point dose-response
  area under the viability curve (AUC), normalized: −1.137
NCC59; 12-point dose-response
  area under the viability curve (AUC), normalized: 1.053
NCI_N87; 12-point dose-response
  area under the viability curve (AUC), normalized: −0.6724
OCUM1; 12-point dose-response
  area under the viability curve (AUC), normalized: 0.7195
SK4; SK4 cells, 12-point dose-response
  area under the viability curve (AUC), normalized: −0.454
SNU16; 12-point dose-response
  area under the viability curve (AUC), normalized: −1.067
SNU1750; SNU1750 cells, 12-point dose-response
  area under the viability curve (AUC), normalized: −1.156
SNU1967; 12-point dose-response
  area under the viability curve (AUC), normalized: −0.4581
SNU1; 12-point dose-response
  area under the viability curve (AUC), normalized: −1.4
SNU216; SNU216 cells, 12-point dose-response
  area under the viability curve (AUC), normalized: 0.6217
SNU484; SNU484 cells, 12-point dose-response
  area under the viability curve (AUC), normalized: 0.208
SNU601; 12-point dose-response
  area under the viability curve (AUC), normalized: 0.1827
SNU620; 12-point dose-response
  area under the viability curve (AUC), normalized: −1.199
SNU638; 12-point dose-response
  area under the viability curve (AUC), normalized: −0.278
SNU668; SNU668 cells, 12-point dose-response
  area under the viability curve (AUC), normalized: 0.519
SNU719; 12-point dose-response
  area under the viability curve (AUC), normalized: 2.187
YCC11; YCC11 cells, 12-point dose-response
  area under the viability curve (AUC), normalized: −0.768
YCC2; 12-point dose-response
  area under the viability curve (AUC), normalized: −0.02045
YCC3; 12-point dose-response
  area under the viability curve (AUC), normalized: 1.403
FU97; 12-point dose-response
  area under the viability curve (AUC), normalized: 0
